Measured values published in patent US10233177B2, “TRPV1 vanilloid receptor antagonists with a bicyclic portion” (Serentrix LLC, priority 2010, dated 2019).
Read-outs that look alike come from different tables or passages of the source.

What was measured:
[1] = Rectal temperature measurements in rats; type: in vivo; details: rat, 10 μmol/Kg intraperitoneal
Description: Rectal Temperature Measurements in Rats
Body temperature was measured by a digital thermometer inserted at a depth of approximately 3 cm into the rectum of each animal (male SD rats, Charles River, Italy, 100 to 250 g). A pre-dose value of body temperature was measured prior to the administration of the test substance or vehicles. Animals were distributed among groups by the manual method to achieve the almost same mean values of body temperature of the groups based on the pre-dose value. All compounds were dissolved in 6% DMSO/6% Tween80 and then intraperitoneally (10 μmol/Kg/5 ml) administrated to rats.

[2] = system: CCI-induced mechanical hyperalgesia; experiment: CCI-induced mechanical hyperalgesia (Randall-Selitto paw pressure); type: in vivo; details: rat CCI, 30 μmol/kg oral
Description: CCI-Induced Mechanical Hyperalgesia
Male SD rats (Charles River, Italy) weighing 250 g were anaesthetized with sodium pentobarbital (60 mg/kg, intraperitoneal (i.p.), 0.1 ml/10 g) and, under a dissecting microscope, the right common sciatic nerve was exposed at the level of the mid thigh and, proximal to the trifurcation of the nerve; four ligatures (4/0 chromic silk, Ethicon) were loosely tied around it, at about 0.5 mm spacing, until they elicited a brief twitch in the respective hind, taking care to preserve epineural circulation. Sham-operated animals (sciatic exposure without ligation) were used as controls. 14 days after the surgery, mechanical hyperalgesia was assessed using an analgesimeter (Ugo Basile, Italy, Randall-Selitto analgesic apparatus). This device generated a mechanical force on the affected paw and the nociceptive threshold was defined as the force (in g) at which the rat withdraws the paw (with a cut-off of 450 g). Two baseline measurement values were obtained 75 and 45 min before the actual test. After the second baseline measurement, animals were randomly allocated to the different treatment groups. Paw pressure test was performed 0, 75, 120, 165, 210 and 300 min after the oral administration of the compounds. All tested compounds were orally administrated (30 μmol/kg/10 ml) to rats by gavage.

[3] = system: CFA-induced thermal hyperalgesia; experiment: CFA-induced thermal hyperalgesia in rats (Hargreaves' test); type: in vivo; details: rat, 30 μmol/kg oral; read-out: reversal of CFA-induced thermal hyperalgesia (maximal reversal activity / % of reversion)
Text: CFA-Induced Thermal Hyperalgesia in Rats
This method was used for the determination of acute nociceptive thermal threshold and combines a chemical stimulus and heat for measuring pain sensitivity. Male SD rats (Charles River, Italy) weighing 100 to 250 gr. were used. Anti-hyperalgesic effects were investigated by using the Hargreaves' test. Complete Freund's Adjuvant (CFA; Sigma, USA) was used to induce thermal hyperalgesia. CFA contains killed Mycobacterium tuberculosis and is designed to provide continuous release of antigens necessary for stimulating a strong, persistent immune response. This effect causes the reduction of the hind paw withdrawal response latency induced by heat during the Hargreaves' test. Thermal stimulation was performed 30, 60, 120 and 180 (240 min only if needed) minutes after the oral administration of the antagonists. During the CFA-induced thermal hyperalgesia experiments two different solubilization protocols were used: when items presented an amino group, a pH=2 aqueous solution of HCl and 2.5% Tween80 was used; otherwise molecules were suspended in 0.5% Methocel and 2.5% Tween80. Compounds were orally administrated (30 μmol/kg/10 ml) to rats 24 hours after the CFA treatment. CFA was injected into the plantar surface of a rat's hind paw at a fixed dose of 50 μl by the use of a micro syringe.

TRPV1 = TRPV1 (Rattus norvegicus (Rat), UniProt O35433); experiment: Ca2+ fluorescence measurements in cultured rat dorsal root ganglia neurons (capsaicin-induced calcium uptake); type: cell-based; details: rat DRG neurons; for inhibition at 0.3 µM: DRG neuron
TRPV1, sequence (O35433 whole entry): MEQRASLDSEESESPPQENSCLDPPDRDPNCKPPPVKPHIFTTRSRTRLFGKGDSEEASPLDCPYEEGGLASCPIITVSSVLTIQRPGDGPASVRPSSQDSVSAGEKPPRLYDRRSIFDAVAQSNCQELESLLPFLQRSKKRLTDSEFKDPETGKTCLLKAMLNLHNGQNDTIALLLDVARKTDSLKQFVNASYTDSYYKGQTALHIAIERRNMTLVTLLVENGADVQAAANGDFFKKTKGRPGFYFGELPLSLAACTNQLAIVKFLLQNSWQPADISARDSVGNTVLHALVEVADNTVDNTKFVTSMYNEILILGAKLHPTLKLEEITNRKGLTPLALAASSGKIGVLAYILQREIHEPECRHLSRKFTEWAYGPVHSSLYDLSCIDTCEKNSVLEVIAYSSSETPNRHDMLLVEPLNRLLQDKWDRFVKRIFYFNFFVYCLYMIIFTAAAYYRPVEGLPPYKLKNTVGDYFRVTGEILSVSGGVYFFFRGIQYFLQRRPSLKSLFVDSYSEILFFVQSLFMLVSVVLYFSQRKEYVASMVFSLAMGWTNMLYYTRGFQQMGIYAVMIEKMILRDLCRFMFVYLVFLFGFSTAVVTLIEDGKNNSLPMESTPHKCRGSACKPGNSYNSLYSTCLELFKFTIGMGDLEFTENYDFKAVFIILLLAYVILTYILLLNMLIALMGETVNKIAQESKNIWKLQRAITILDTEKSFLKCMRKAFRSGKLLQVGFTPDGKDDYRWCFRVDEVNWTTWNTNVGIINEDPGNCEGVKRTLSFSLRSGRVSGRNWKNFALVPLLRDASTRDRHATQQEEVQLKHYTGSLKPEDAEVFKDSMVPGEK

[4] = system: CFA-induced tactile allodynia; experiment: CFA-induced tactile allodynia in rats (von Frey filaments); type: in vivo; details: rat, 30 μmol/kg oral
Description: CFA-Induced Tactile Allodynia in Rats
Male SD rats (Charles River, Italy) weighing 100 to 250 g were put into a clean plastic cage on an elevated glass plate for 30 min before the test. This lets the animals accommodate to their new environment before testing. Complete Freund's adjuvant (CFA, 50 μl) was injected into the plantar surface of the right hind paw. Tactile stimulation was performed with von Frey filaments (from 0.07 to 26 g). All antagonists were orally administered 22 hours after to the CFA administration. Von Frey filaments were applied 30, 60, 120, 180, 240, 300 and 360 min after compound administrations. Median 50% (EG50) threshold of von Frey filaments was calculated by using the up-down method as previously described. All tested compounds were suspended in 0.5% Methocel and 2.5% Tween80 and orally administrated (30 μmol/kg/10 ml) to rats by gavage 24 hours after the CFA treatment. CFA was injected into the plantar surface of a rat's hind paw at a fixed dose of 50 μl by the use of a micro syringe.

[5] = 300 nM, read-out: abolition of capsaicin response at 300 nM
[6] = Table 1, formula IA-C, 300 nM against calcium uptake induced by 30 nM capsaicin, read-out: % inhibition at 300 nM
[7] = capsaicin-induced calcium uptake, read-out: inhibition of the calcium uptake
[8] = Table 1, against capsaicin-evoked [Ca2+]i mobilization, read-out: IC50
[9] = read-out: IC50 against capsaicin-evoked [Ca2+]i mobilization

| SMILES | effect on rectal body temperature [1] | anti-hyperalgesic activity (in words) [2] | reversal of hyperalgesia within the first 2 hours [2] | inhibition in vivo at 30 µmol/kg [3] | inhibition at 0.3 µM (TRPV1; [5]) | inhibition at 0.3 µM (TRPV1; [6]) | inhibition at 0.3 µM (TRPV1; [7]) | IC50 (TRPV1; [8]) | IC50 (TRPV1; [9]) | reversal of CFA-induced tactile allodynia [4] |
| --- | --- | --- | --- | --- | --- | --- | --- | --- | --- | --- |
| CN(C)c1cc(C(F)(F)F)ccc1CNC(=O)Nc1cccc2c1OCC(=O)N2 [Example 46, 1-(2-(dimethylamino)-4-(trifluoromethyl)benzyl)-3-(3,4-dihydro-3-oxo-2H-benzo[b][1,4]oxazin-8-yl)urea] | +0.8 °C | relevant and long lasting anti-hyperalgesic activity | at least 80% | 50% | ~100% | 94% | > 80% | 3 nM | 3 nM | – |
| O=C(NCc1ccc(C(F)(F)F)cc1N1CCCCC1)Nc1cccc2oc(=O)[nH]c12 [Example 31, 1-(4-(trifluoromethyl)-2-(piperidin-1-yl)benzyl)-3-(2,3-dihydro-2-oxobenzo[d]oxazol-4-yl)urea] | −1.5 °C | relevant and long lasting anti-hyperalgesic activity | at least 80% | 47% | ~100% | 100% | > 80% | 1.9 nM | 1.9 nM | – |
| O=C1COc2c(cccc2NC(=O)NCc2ccc(Cl)cc2)N1 [Example 49, 1-(4-chlorobenzyl)-3-(3,4-dihydro-3-oxo-2H-benzo[b][1,4]oxazin-8-yl)urea] | – | relevant and long lasting anti-hyperalgesic activity | at least 80% | 52% | – | 68% | – | – | – | 72% |
